According to ChEMBL document CHEMBL1201862, “PubChem BioAssay data set” (2004):
The source made the active and inactive calls.

How the values were obtained:
[1] = target: T1, Scavenger receptor class B member 1 (Mus musculus, UniProt Q61009); assay: inhibitors of SR-BI mediated HDL lipid uptake, dose response, ldlA[mSR-BI] cells, fluorescence, cherry pick (AID 493194); assay type: functional, cell-based;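 further: cellular uptake of fluorescent DiI-labeled HDL measured as cell fluorescence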
T1 sequence (Q61009 whole entry): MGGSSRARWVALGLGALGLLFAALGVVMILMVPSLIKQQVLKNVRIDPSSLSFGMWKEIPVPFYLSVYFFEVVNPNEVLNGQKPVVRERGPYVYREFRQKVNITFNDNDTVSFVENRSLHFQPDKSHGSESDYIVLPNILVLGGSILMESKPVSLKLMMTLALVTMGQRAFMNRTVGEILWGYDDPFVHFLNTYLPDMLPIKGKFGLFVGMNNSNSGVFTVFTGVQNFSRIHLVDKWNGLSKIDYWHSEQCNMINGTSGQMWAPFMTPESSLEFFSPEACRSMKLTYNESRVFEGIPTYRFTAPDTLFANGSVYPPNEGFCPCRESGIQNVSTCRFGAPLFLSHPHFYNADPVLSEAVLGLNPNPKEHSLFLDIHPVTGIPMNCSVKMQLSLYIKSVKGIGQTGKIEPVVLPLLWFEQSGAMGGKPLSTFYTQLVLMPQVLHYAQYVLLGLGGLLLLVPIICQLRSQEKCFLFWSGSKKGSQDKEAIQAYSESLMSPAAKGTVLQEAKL

[2] = target: T2, Heat shock factor protein 1 (Mus musculus, UniProt P38532); assay: inhibition of MG132-induced HSE-luciferase signal, confirmation, cell-based, NIH3T3, luminescence, dose retest (AID 2382); assay type: functional;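 further: NIH3T3 fibroblasts with HSF1-driven luciferase reporter stressed by proteasome inhibitor MG132; luminescence from HSF1-driven luciferase expression after 8 hours of MG132 stress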
T2 sequence (P38532 whole entry): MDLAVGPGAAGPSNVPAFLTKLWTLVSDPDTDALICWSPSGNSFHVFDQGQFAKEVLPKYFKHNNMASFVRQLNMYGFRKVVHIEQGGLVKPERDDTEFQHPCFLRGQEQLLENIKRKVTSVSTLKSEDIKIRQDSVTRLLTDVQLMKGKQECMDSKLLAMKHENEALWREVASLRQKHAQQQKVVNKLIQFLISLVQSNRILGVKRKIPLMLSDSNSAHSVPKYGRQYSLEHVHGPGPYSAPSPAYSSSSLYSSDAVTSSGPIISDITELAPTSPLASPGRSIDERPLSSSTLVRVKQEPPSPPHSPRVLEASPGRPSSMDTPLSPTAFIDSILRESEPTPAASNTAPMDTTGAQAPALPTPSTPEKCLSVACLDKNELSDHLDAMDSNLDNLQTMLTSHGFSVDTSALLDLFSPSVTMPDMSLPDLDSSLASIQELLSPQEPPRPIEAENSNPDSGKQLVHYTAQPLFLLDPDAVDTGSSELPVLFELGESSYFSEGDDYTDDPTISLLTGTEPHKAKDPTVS

X-box-binding protein 1 = target: T3, X-box-binding protein 1 (Homo sapiens, UniProt P17861); assay type: functional, Cricetulus griseus;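 further: confirmatory dose-response counter-screen serving a CHOP assay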
T3 sequence (P17861 whole entry): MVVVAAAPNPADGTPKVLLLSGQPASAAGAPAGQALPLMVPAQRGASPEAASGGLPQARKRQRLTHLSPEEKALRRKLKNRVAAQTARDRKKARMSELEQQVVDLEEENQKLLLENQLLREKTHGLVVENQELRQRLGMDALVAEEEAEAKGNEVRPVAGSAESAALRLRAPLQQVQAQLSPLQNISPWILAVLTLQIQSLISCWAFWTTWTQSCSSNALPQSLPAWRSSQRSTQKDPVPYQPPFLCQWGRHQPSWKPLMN

[3] = A Cell Based Secondary Assay To Explore Cytotoxicity of Compounds that Sensitize Mycobacterium Tuberculosis to Beta-Lactam Antibiotics.; assay type: functional
[4] = Luminescence Cell-Based Dose Retest to Confirm Inhibitors of Cancer Stem Cells. [Related pubchem assays (depositor defined):AID2717, AID2721]; assay type: functional; details: Homo sapiens
[5] = target: T4, Corticotropin-releasing factor receptor 2/Corticotropin-releasing factor-binding protein (Homo sapiens, UniProt P24387+Q13324); assay: activators of CRF receptor 2 with binding protein – uHTS hits, confirmation (AID 602473); assay type: functional; details: read-out: EC50_Mean
T4 sequence (Q13324 whole entry): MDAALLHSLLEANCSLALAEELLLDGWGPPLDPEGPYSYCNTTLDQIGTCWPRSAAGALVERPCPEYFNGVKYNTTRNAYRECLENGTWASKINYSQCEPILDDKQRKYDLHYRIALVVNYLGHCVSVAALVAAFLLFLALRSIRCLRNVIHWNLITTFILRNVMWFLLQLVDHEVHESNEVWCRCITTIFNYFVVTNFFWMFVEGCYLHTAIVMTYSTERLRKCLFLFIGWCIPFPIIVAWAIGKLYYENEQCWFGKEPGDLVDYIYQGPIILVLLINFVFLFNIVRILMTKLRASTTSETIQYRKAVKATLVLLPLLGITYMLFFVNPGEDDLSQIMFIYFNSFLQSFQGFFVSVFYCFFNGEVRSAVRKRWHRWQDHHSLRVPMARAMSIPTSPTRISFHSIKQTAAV
T4 sequence (P24387 whole entry): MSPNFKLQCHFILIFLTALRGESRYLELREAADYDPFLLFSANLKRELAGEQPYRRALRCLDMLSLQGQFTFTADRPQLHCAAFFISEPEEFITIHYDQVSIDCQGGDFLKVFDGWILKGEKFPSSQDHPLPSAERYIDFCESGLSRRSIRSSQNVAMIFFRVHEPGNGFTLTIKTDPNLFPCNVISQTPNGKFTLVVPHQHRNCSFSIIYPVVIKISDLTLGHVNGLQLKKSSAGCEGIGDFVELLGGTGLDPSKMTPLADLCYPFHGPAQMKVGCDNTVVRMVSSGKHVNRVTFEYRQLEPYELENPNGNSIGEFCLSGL

[6] = inhibitors of intracellular T. cruzi replication, confirmation, NIH3T3 host cells, beta-gal luminescence (AID 2044); assay type: functional, cell-based;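 further: intracellular parasites grown in NIH/3T3 mouse fibroblasts as host cells; luminescent beta-galactosidase reporter signal from transgenic T. cruzi replicating inside host cells; inhibitors lower the luminescence signal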
[7] = cytotoxicity toward NIH3T3 fibroblasts, dose response, counter-screen, cell-based, ATP luminescence, mouse fibroblasts (AID 2010); assay type: functional;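 further: cells exposed to compound for about 90 hours before reading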
Bcl-2-like protein 10 = target: T5, Bcl-2-like protein 10 (Homo sapiens, UniProt Q9HD36); assay: displacers of TR3 peptide from Bcl-B, primary screen, selectivity assay for Bfl-1 inhibitor project, biochemical, fluorescence polarization, FITC-TR3 peptide (AID 748);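 further: fluorescence polarization from a fluorescein-labelled TR3 peptide binding purified Bcl-B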
T5 sequence (Q9HD36 whole entry): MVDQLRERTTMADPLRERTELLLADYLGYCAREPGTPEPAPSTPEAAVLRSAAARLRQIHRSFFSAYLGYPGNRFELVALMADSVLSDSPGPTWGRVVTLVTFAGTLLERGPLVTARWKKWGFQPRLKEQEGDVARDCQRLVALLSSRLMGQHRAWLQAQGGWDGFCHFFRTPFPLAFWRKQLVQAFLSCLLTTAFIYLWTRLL

[8] = target: T6, Aryl hydrocarbon receptor (Homo sapiens, UniProt P35869); assay: Luminescence-based cell-based high throughput dose response assay for activators of the Aryl Hydrocarbon Receptor (AHR). [Related pubchem assays: 2796 (Primary screen (AHR activators in singlicate)), 2845 (Confirmation screen (AHR activators in triplicate)), 434939 (Counterscreen (PXR activators in triplicate)), 2804 (Summary (AHR activators))]; assay type: ADME
T6 sequence (P35869 whole entry): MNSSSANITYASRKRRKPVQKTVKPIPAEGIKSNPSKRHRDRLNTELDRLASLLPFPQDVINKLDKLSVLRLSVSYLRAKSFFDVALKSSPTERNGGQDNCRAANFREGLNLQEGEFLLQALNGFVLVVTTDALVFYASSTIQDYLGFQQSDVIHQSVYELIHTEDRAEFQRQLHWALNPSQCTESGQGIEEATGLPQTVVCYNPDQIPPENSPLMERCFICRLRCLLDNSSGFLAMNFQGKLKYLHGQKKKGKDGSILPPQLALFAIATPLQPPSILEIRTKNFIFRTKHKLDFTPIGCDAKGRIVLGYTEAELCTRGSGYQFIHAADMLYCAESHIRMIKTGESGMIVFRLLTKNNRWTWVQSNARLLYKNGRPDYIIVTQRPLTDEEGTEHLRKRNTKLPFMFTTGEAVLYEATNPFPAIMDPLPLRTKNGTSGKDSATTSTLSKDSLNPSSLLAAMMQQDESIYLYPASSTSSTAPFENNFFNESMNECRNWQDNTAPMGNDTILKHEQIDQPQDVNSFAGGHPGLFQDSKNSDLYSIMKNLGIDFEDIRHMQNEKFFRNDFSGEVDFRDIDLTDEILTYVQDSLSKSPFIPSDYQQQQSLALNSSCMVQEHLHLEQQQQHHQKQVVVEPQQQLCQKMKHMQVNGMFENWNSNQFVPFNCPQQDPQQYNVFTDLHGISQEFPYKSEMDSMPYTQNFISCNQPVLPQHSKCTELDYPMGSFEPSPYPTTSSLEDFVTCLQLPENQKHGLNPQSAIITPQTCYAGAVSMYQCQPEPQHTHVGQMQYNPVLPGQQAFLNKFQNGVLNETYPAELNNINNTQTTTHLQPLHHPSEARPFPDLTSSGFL

Cytochrome P450 1A2 = target: T7, Cytochrome P450 1A2 (Homo sapiens, UniProt P05177);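 further: PubChem cytochrome P450 panel assay, CYP1A2 panel member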
T7 sequence (P05177 whole entry): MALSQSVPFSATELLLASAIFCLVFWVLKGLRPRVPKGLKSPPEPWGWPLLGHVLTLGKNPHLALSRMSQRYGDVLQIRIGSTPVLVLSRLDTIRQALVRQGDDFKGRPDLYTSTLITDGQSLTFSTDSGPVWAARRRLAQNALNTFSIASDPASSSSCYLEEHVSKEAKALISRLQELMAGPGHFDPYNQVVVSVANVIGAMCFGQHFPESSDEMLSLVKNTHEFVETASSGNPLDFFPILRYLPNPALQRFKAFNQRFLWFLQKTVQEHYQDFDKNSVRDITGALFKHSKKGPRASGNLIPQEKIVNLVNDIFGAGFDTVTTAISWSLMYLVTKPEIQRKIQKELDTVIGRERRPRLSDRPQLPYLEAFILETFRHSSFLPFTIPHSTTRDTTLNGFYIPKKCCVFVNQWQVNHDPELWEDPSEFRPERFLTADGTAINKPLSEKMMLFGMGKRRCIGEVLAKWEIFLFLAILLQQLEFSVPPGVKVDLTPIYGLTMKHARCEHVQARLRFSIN

Cytochrome P450 2C9 = Cytochrome P450 2C9 (Homo sapiens, UniProt P11712)
INS1 = assay: beta cell apoptosis inhibitors, cytokine rescue, dose response, luminescence, retest (AID 449756); assay type: functional, cell-based; details: Rattus norvegicus;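 further: cell death triggered by IL-1 beta plus TNF-alpha plus IFN-gamma mixture; protective hits raise ATP signal compared with cytokine alone wells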

Chain of Cytochrome P450 2C9 (P11712 whole entry): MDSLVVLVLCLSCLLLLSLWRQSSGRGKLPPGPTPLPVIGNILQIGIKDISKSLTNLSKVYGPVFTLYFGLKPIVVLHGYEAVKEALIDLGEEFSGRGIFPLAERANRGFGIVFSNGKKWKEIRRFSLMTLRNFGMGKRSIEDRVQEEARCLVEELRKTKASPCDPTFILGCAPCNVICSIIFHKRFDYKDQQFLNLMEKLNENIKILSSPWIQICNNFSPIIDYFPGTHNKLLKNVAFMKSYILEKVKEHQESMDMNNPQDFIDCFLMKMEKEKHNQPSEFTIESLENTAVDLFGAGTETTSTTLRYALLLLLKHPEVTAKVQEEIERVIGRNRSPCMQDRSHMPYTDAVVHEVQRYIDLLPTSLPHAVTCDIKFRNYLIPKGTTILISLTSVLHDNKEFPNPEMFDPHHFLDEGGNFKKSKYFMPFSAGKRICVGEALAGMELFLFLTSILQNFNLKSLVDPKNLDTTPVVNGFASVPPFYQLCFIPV

For `Nc1ccc(Nc2nc(-c3cccs3)cs2)cc1`, which AC50 [1] is on record?
Its AC50 is 8.4 µM (active).

Which AC50 [1] does the source give for `COc1ccc2sc(-c3ccc(N(C)C)cc3)c(C#CC(C)(C)O)c2c1` here?
The AC50 was 2.73 µM (active).

For `COc1cc(/C=C/c2nc(N)nc(-c3ccccc3O)n2)cc(OC)c1OC`, which EC50 [2] is on record?
Its EC50 is 36.1 µM (active).

What about the “Absolute IC50 (XBP1)” value (X-box-binding protein 1) of the same compound?
Its value is 10 µM.

What does the source list for `C=CCNCCCOc1ccc(Cl)cc1C(C)(C)C`?
CC50 [3]: 28.8 µM (active); AC50 [4]: 16.1 µM (active)

Which results are given for `COc1cc(/C=C(/C#N)c2nc(O)c3ccccc3n2)ccc1O`?
Absolute IC50 (XBP1) (X-box-binding protein 1): 10 µM; EC50 [5]: > 53 µM (inactive)

For `Fc1ccccc1N1CCN(C2CCCN(Cc3cccc(C(F)(F)F)c3)C2)CC1` (centres undefined), which EC50 [6] is on record?
Its EC50 is < 0.1 µM (active).

And the EC50 [7]?
Its EC50 is > 60 µM (not active).

What about the EC50 (cells) of the same compound?
Its EC50 is 0.656 µM (active).

With `CCOc1ccc(C2=C/C(=C/c3cccnc3)C(=O)O2)cc1` as the compound, how does the “Absolute IC50 (XBP1)” value (X-box-binding protein 1) read?
The value was 10 µM.

Which IC50 (Bcl-2-like protein 10) does the source give for `Brc1ccc2ncnc(Nc3ccc(N4CCOCC4)cc3)c2c1` here?
The IC50 was > 50 µM (inactive).

And the EC50 [6]?
The EC50 was 0.92 µM (active).

What about the EC50 [8] of the same compound?
The EC50 was 1.14 µM (active).

What about the EC50 [7] of the same compound?
Its EC50 is > 60 µM (not active).

Which CC50 [3] does the source give for `CC(=O)Nc1ccc(Nc2ncc([N+](=O)[O-])c(Nc3ccc(NC(C)=O)cc3)n2)cc1` here?
Its CC50 is > 40 µM (active).

And the AC50 (Cytochrome P450 1A2)?
Its AC50 is 22.4 µM (inconclusive).

What about the AC50 (Cytochrome P450 2C9) of the same compound?
Its AC50 is 0.355 µM (inconclusive).

With `CN1CCC(OC(=O)c2ccc(Br)cc2)CC1` as the compound, how does the EC50 [6] read?
The EC50 was < 0.1 µM (active).

And the EC50 [7]?
The EC50 was > 60 µM (not active).

And the EC50 (cells)?
Its EC50 is 0.029 µM (active).

With `CCCNc1nc(Cl)nc(Nc2ccc(Cl)cc2)n1` as the compound, how does the EC50 [8] read?
The EC50 was 3.38 µM (active).

For `O=C(CN(C(=O)Cn1nnc(-c2ccc(F)cc2)n1)C1CCCC1)NC1CCCC1`, which AC50 [1] is on record?
Its AC50 is 0.184 µM (active).

Which EC50 [8] does the source give for `COc1cc(/C=N/NC(=O)c2cccnc2)cc2c1OCO2` here?
The EC50 was 6.16 µM (active).

Which EC50 [6] does the source give for `COc1ccc2c(c1)N(C)/C(=C/c1cccc[n+]1C)S2` here?
The EC50 was < 0.1 µM (active).

And the EC50 [7]?
The EC50 was > 60 µM (not active).

And the AC50 (INS1)?
The AC50 was 1.13 µM (active).

What about the EC50 (cells) of the same compound?
The EC50 was 0.029 µM (active).
